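Dose response: 5 concentrations. Exposure: 48 h. Format: 96-well plates. Endpoint: linear interpolation; highest concentration if not reached. Abbreviation: GI50, concentration required for 50% inhibition of growth.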 Calls of active or inactive are those of the source. No stated cut-off is given here; in the data, active = GI50 up to about 1.1 µM and inactive = higher.
Experiments:
Assay in all cases: NCI anticancer screen, dose series, 48 h
[1] = test system: HOP-92
[2] = test system: XF498
[3] = test system: SK-MEL-2
[4] = test system: K562
[5] = test system: SK-MEL-28
[6] = test system: OVCAR-5
[7] = test system: OVCAR-4
[8] = test system: UACC-257
[9] = test system: RXF 631
[10] = test system: RPMI-8226
[11] = test system: COLO 205
[12] = test system: A498
[13] = test system: M14
[14] = test system: SK-OV-3
[15] = test system: SF-295
[16] = test system: SN12C
[17] = test system: NCI-H522
[18] = test system: NCI-H23
[19] = test system: LXFL 529
[20] = test system: MOLT-4
[21] = test system: SNB-75
[22] = test system: KM12
[23] = test system: EKVX
[24] = test system: HT-29
[25] = test system: TK-10
[26] = test system: Malme-3M
[27] = test system: CAKI-1
[28] = test system: IGROV-1
[29] = test system: A549
[30] = test system: SF-539
[31] = test system: ACHN
[32] = test system: RXF 393
[33] = test system: KM-20L2
[34] = test system: SNB-78
[35] = test system: UACC-62
[36] = test system: UO-31
[37] = test system: CCRF-CEM
[38] = test system: DMS-273
[39] = test system: HCC 2998
[40] = test system: HCT-15
[41] = test system: U-251
[42] = test system: LOX IMVI
[43] = test system: OVCAR-3
[44] = test system: DLD-1
[45] = test system: NCI-H226
[46] = test system: SW-620
[47] = test system: SNB-19
[48] = test system: SK-MEL-5
[49] = test system: SF-268
[50] = test system: OVCAR-8
[51] = test system: NCI-H460
[52] = test system: M19-MEL
[53] = test system: HCT-116
[54] = test system: HOP-62
[55] = test system: DMS-114
[56] = test system: 786-0
[57] = test system: MDA-N
[58] = test system: MDA-MB-231
[59] = test system: DU-145
[60] = test system: Hs-578T
[61] = test system: NCI/ADR-RES
[62] = test system: SR
[63] = test system: PC-3
[64] = test system: MCF7
[65] = test system: MDA-MB-435
[66] = test system: HL-60
[67] = test system: BT-549
[68] = test system: T47D

**Q.** What does the source list for c1ccc2c(c1)n1nnnc1c1nnnn21?
**A.** GI50 [1]: 18.6 µM (inactive); GI50 [2]: > 100 µM (inactive); GI50 [3]: > 100 µM (inactive); GI50 [4]: > 100 µM (inactive); GI50 [5]: > 100 µM (inactive); GI50 [6]: > 100 µM (inactive); GI50 [7]: 32.4 µM (inactive); GI50 [8]: > 100 µM (inactive); GI50 [9]: > 100 µM (inactive); GI50 [10]: > 100 µM (inactive); GI50 [11]: > 100 µM (inactive); GI50 [12]: > 100 µM (inactive); GI50 [13]: > 100 µM (inactive); GI50 [14]: > 100 µM (inactive); GI50 [15]: 77.8 µM (inactive); GI50 [16]: > 100 µM (inactive); GI50 [17]: 12.6 µM (inactive); GI50 [18]: > 100 µM (inactive); GI50 [19]: > 100 µM (inactive); GI50 [20]: > 100 µM (inactive); GI50 [21]: 24.6 µM (inactive); GI50 [22]: > 100 µM (inactive); GI50 [23]: > 100 µM (inactive); GI50 [24]: > 100 µM (inactive); GI50 [25]: > 100 µM (inactive); GI50 [26]: > 100 µM (inactive); GI50 [27]: > 100 µM (inactive); GI50 [28]: > 100 µM (inactive); GI50 [29]: > 100 µM (inactive); GI50 [30]: 78.9 µM (inactive); GI50 [31]: > 100 µM (inactive); GI50 [32]: 87.3 µM (inactive); GI50 [33]: 93.8 µM (inactive); GI50 [34]: 53.6 µM (inactive); GI50 [35]: > 100 µM (inactive); GI50 [36]: > 100 µM (inactive); GI50 [37]: > 100 µM (inactive); GI50 [38]: > 100 µM (inactive); GI50 [39]: > 100 µM (inactive); GI50 [40]: > 100 µM; GI50 [41]: > 100 µM (inactive); GI50 [42]: 33.5 µM (inactive); GI50 [43]: > 100 µM (inactive); GI50 [44]: > 100 µM (inactive); GI50 [45]: > 100 µM (inactive); GI50 [46]: > 100 µM (inactive); GI50 [47]: > 100 µM (inactive); GI50 [48]: > 100 µM (inactive); GI50 [49]: 85.1 µM (inactive); GI50 [50]: 92.7 µM (inactive); GI50 [51]: > 100 µM (inactive); GI50 [52]: > 100 µM (inactive); GI50 [53]: > 100 µM (inactive); GI50 [54]: > 100 µM (inactive); GI50 [55]: 83.4 µM (inactive); GI50 [56]: 83.4 µM (inactive)

**Q.** With NC(=O)c1cc(N2CC2)c([N+](=O)[O-])cc1[N+](=O)[O-] [TRETAZICAR] as the molecule, how does the GI50 [1] read?
**A.** Its GI50 is > 100 µM (inactive).

**Q.** What about the GI50 [3] of the same molecule?
**A.** The GI50 was > 20 µM (inactive).

**Q.** What about the GI50 [4] of the same molecule?
**A.** Its GI50 is > 100 µM (inactive).

**Q.** And the GI50 [57]?
**A.** Its GI50 is > 200 µM (inactive).

**Q.** What about the GI50 [5] of the same molecule?
**A.** The GI50 was > 200 µM (inactive).

**Q.** What about the GI50 [6] of the same molecule?
**A.** Its GI50 is > 100 µM (inactive).

**Q.** And the GI50 [7]?
**A.** The GI50 was > 100 µM (inactive).

**Q.** What about the GI50 [8] of the same molecule?
**A.** The GI50 was > 100 µM (inactive).

**Q.** What about the GI50 [9] of the same molecule?
**A.** Its GI50 is > 100 µM (inactive).

**Q.** And the GI50 [58]?
**A.** Its GI50 is > 200 µM (inactive).

**Q.** What about the GI50 [10] of the same molecule?
**A.** Its GI50 is > 100 µM (inactive).

**Q.** And the GI50 [11]?
**A.** The GI50 was > 100 µM (inactive).

**Q.** And the GI50 [12]?
**A.** Its GI50 is > 66.7 µM (inactive).

**Q.** And the GI50 [59]?
**A.** Its GI50 is > 200 µM (inactive).

**Q.** And the GI50 [13]?
**A.** Its GI50 is > 100 µM (inactive).

**Q.** And the GI50 [14]?
**A.** Its GI50 is > 100 µM (inactive).

**Q.** What about the GI50 [15] of the same molecule?
**A.** The GI50 was > 100 µM (inactive).

**Q.** And the GI50 [16]?
**A.** The GI50 was > 100 µM (inactive).

**Q.** What about the GI50 [60] of the same molecule?
**A.** The GI50 was > 200 µM (inactive).

**Q.** What about the GI50 [17] of the same molecule?
**A.** The GI50 was > 100 µM (inactive).

**Q.** What about the GI50 [18] of the same molecule?
**A.** Its GI50 is > 100 µM (inactive).

**Q.** And the GI50 [19]?
**A.** Its GI50 is > 100 µM (inactive).

**Q.** What about the GI50 [61] of the same molecule?
**A.** Its GI50 is > 200 µM (inactive).

**Q.** What about the GI50 [20] of the same molecule?
**A.** Its GI50 is > 63.2 µM (inactive).

**Q.** And the GI50 [22]?
**A.** Its GI50 is > 100 µM (inactive).

**Q.** And the GI50 [23]?
**A.** The GI50 was > 100 µM (inactive).

**Q.** What about the GI50 [24] of the same molecule?
**A.** Its GI50 is > 100 µM (inactive).

**Q.** And the GI50 [25]?
**A.** Its GI50 is > 200 µM (inactive).

**Q.** What about the GI50 [26] of the same molecule?
**A.** Its GI50 is > 129 µM (inactive).

**Q.** And the GI50 [62]?
**A.** Its GI50 is > 200 µM (inactive).

**Q.** What about the GI50 [27] of the same molecule?
**A.** Its GI50 is > 100 µM (inactive).

**Q.** And the GI50 [28]?
**A.** Its GI50 is > 100 µM (inactive).

**Q.** What about the GI50 [63] of the same molecule?
**A.** The GI50 was > 200 µM (inactive).

**Q.** And the GI50 [29]?
**A.** Its GI50 is > 184 µM (inactive).

**Q.** And the GI50 [30]?
**A.** Its GI50 is > 100 µM (inactive).

**Q.** And the GI50 [31]?
**A.** The GI50 was > 100 µM (inactive).

**Q.** And the GI50 [32]?
**A.** The GI50 was > 100 µM (inactive).

**Q.** And the GI50 [33]?
**A.** The GI50 was > 100 µM (inactive).

**Q.** And the GI50 [64]?
**A.** The GI50 was > 63.2 µM (inactive).

**Q.** And the GI50 [34]?
**A.** Its GI50 is > 100 µM (inactive).

**Q.** What about the GI50 [35] of the same molecule?
**A.** The GI50 was > 100 µM (inactive).

**Q.** And the GI50 [65]?
**A.** The GI50 was > 200 µM (inactive).

**Q.** And the GI50 [36]?
**A.** The GI50 was > 100 µM (inactive).

**Q.** What about the GI50 [37] of the same molecule?
**A.** The GI50 was > 100 µM (inactive).

**Q.** And the GI50 [38]?
**A.** Its GI50 is > 100 µM (inactive).

**Q.** And the GI50 [39]?
**A.** Its GI50 is > 100 µM (inactive).

**Q.** What about the GI50 [40] of the same molecule?
**A.** The GI50 was over 145 µM.

**Q.** What about the GI50 [41] of the same molecule?
**A.** The GI50 was > 100 µM (inactive).

**Q.** And the GI50 [42]?
**A.** Its GI50 is > 100 µM (inactive).

**Q.** And the GI50 [43]?
**A.** Its GI50 is > 100 µM (inactive).

**Q.** What about the GI50 [45] of the same molecule?
**A.** The GI50 was > 100 µM (inactive).

**Q.** What about the GI50 [46] of the same molecule?
**A.** The GI50 was > 100 µM (inactive).

**Q.** What about the GI50 [47] of the same molecule?
**A.** The GI50 was > 100 µM (inactive).

**Q.** And the GI50 [48]?
**A.** Its GI50 is > 200 µM (inactive).

**Q.** What about the GI50 [66] of the same molecule?
**A.** Its GI50 is > 100 µM (inactive).

**Q.** And the GI50 [49]?
**A.** Its GI50 is > 100 µM (inactive).

**Q.** And the GI50 [50]?
**A.** Its GI50 is > 100 µM (inactive).

**Q.** What about the GI50 [51] of the same molecule?
**A.** Its GI50 is 13 µM (inactive).

**Q.** What about the GI50 [52] of the same molecule?
**A.** The GI50 was > 100 µM (inactive).

**Q.** And the GI50 [53]?
**A.** Its GI50 is > 100 µM (inactive).

**Q.** And the GI50 [54]?
**A.** The GI50 was > 100 µM (inactive).

**Q.** And the GI50 [55]?
**A.** Its GI50 is > 100 µM (inactive).

**Q.** What about the GI50 [67] of the same molecule?
**A.** The GI50 was > 100 µM (inactive).

**Q.** What about the GI50 [68] of the same molecule?
**A.** Its GI50 is > 200 µM (inactive).

**Q.** And the GI50 [56]?
**A.** The GI50 was > 100 µM (inactive).

— ChEMBL document CHEMBL1201862, “PubChem BioAssay data set” (2004)
